Marks after values point to notes of the source that are not given here.
Tests used:
[1] = test system: scopolamine and MK801-induced cognitive impairment; experiment: Example 5: Y-maze test, scopolamine and MK801-induced deficits, co-administration with donepezil (Table 102); assay type: in vivo, ddY mouse
Excerpt: Thus, scopolamine-induced cognitive impairment model, one of the AD-like model, has been used to predict pharmacodynamic signals of putative procognitive compounds, utilizing the acetylcholinesterase inhibitor donepezil for illustration (See, Citations 1 and 2). The present inventors investigated the effect of each compound on reversal of scopolamine-induced deficits in performance of Y-maze test in mice, and they also investigated adjunctive effect of compounds with donepezil on reversal of deficits induced by scopolamine and MK801 in mice.
Used animal: ddY mouse (SLC)
In the experiments, the mice were grouped in the same way using Stat Preclinica (Version 1.03295; Takumi Information Technology Inc.). The selected mice were divided into 5 to 7 groups of 7 to 12 mice using the “completely randomization design by the single variable” program (Analytical program version 1.0.7), with body weight on the testing day. After grouping, p values for Bartlett's test and ANOVA across all groups were greater than 0.2, indicating no significant difference in this parameter among the groups.
The required amount of each compound was weighed and put into a glass homogenizer. The required amount of 0.5% MC (methyl cellulose) solution was added, and each compound was suspended to give a 10 mg/kg dosing suspension.
The required amount of donepezil was weighed and put into a glass homogenizer. The required amount of 0.5% MC solution was added, and donepezil was suspended to give a suspension at concentration of 1 mg/mL (10 mg/kg dosing suspension).
The required amount of scopolamine and MK801 were weighed, and saline was added to it to give 0.3 mg/mL and 0.015 mg/mL solution, respectively.
90 Min before the test, the mice were orally administered each compound, donepezil, and vehicle (0.5% methyl cellulose, 10 mL/kg). After 60 min, memory impairment was induced by administering scopolamine (0.6 mg/kg, s.c.) with (co-administration) or without (mono-administration) MK801 (0.03 mg/kg, s.c.). The control group received saline (2 mL/kg, s.c.) rather than scopolamine and MK801.
The Y-maze used herein is a three-arm maze with equal angles between all arms. The mazefloor and walls were constructed from black acrylic resin. The mice were initially placed within one arm, and the sequence and number of arm entries were recorded manually for each mouse over an 8-min period.
Data were processed and analyzed with Microsoft® Office Excel 2003. The alternation behavior was defined as entries into all three arms on consecutive occasions. The percent alternation behavior in each animal was calculated using the following formula, and rounded to one decimal place.
Alternation behavior(%)=[actual alternation/(total arm entries−2)]×100
Restoration ratio of alternation behavior (%) in each animal was calculated using the following formula, and rounded to one decimal place.
Restoration ratio of alternation behavior in each animal (%)=y Alternation behavior in each animal (%)=x Mean of alternation behavior in vehicle-treated group (group No. 1) (%)=A Mean of alternation behavior in scopolamine-treated group (group No. 2) (%)=B
Data were expressed as the mean of the percent alternation behavior, the number of total arm entries and the restoration ratio of alternation behavior.
Values of Y-maze tests are expressed as mean of alternation behavior (n=7−12).
Alternation behaviors in the scopolamine-treated groups were compared to those in the control groups using Wilcoxon rank sum test (Stat preclinical; Version 1.03295; Takumi Information Technology Inc.) with a two-sided significance level of 0.05.
Restoration of alternation behavior was analyzed using Stat Preclinica. Alternation behaviors in the Donepezil (10 mg/kg, p.o.)-treated group were compared to those in the co-administrated groups of test compounds with donepezil (10 mg/kg, p.o.) using non-parametric Dunnett multiple comparison test (Analytical program version 1.0.2) with a two-sided significance level of 0.05.

human 5-HT4b receptor = target: T1, human 5-HT4b receptor (Homo sapiens, UniProt Q13639); experiment: Test Example 2: Serotonin 4 (5-HT4) receptor agonist activity assay, cAMP HTRF in CHO cells (Table 97); assay type: cell-based; settings: cAMP in CHO cells expressing human 5-HT4b receptor, mean value; for Emax: 0.25 h, intrinsic activity, maximal activity of 5-HT defined as 100%, read-out: IA (%); for EC50: concentration showing 50% of IA
T1 construct: expressed in transfected cells; host or cells: CHO cells (G418 selection)

[2] = compound 0.1 mg/kg, p.o. co-administered with Donepezil 10 mg/kg, p.o.

T1 sequence (Q13639 whole entry): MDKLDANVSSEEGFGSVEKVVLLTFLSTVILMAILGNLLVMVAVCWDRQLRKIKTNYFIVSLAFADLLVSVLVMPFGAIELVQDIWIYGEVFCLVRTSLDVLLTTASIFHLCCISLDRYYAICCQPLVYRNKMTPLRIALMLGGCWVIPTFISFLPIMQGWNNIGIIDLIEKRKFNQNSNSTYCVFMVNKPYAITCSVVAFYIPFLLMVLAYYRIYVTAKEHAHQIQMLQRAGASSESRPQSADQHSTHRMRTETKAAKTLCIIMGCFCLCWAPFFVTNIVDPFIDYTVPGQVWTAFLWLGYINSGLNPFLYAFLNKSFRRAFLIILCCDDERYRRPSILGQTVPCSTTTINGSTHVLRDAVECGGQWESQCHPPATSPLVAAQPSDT

| SMILES | Alternation behavior (%) ([1]; compound 0.03 mg/kg, p.o. alone) | Alternation behavior (%) ([1]; compound 0.03 mg/kg, p.o. co-administered with Donepezil 10 mg/kg, p.o.) | Alternation behavior (%) ([1]; compound 0.1 mg/kg, p.o. alone) | Alternation behavior (%) [1, 2] | Emax (human 5-HT4b receptor) [%] | EC50 (human 5-HT4b receptor) [nM] | Alternation behavior (%) ([1]; compound 0.3 mg/kg, p.o. alone) | Alternation behavior (%) ([1]; compound 0.3 mg/kg, p.o. co-administered with Donepezil 10 mg/kg, p.o.) |
| --- | --- | --- | --- | --- | --- | --- | --- | --- |
| CC(=O)N1CCC(N2CCC(c3nc(-n4nc(C(C)C)c5cccc(F)c54)no3)CC2)CC1.Cl [Example 232, 1-(4-{3-[7-fluoro-3-(propan-2-yl)-1H-indazol-1-yl]-1,2,4-oxadiazol-5-yl}-1,4′-bipiperidin-1′-yl)ethanone hydrochloride] | 46.7 | 48.5 | 48.0^# % | 62.4^$ % | 95 | 2.6 | – | – |
| CC(C)c1nn(-c2noc(C3CCN(C4CCN(C(=O)CO)CC4)CC3)n2)c2c(F)cccc12 [Example 242, 1-(4-{3-[7-fluoro-3-(propan-2-yl)-1H-indazol-1-yl]-1,2,4-oxadiazol-5-yl}-1,4′-bipiperidin-1′-yl)-2-hydroxyethanone] | – | – | 51.2^# % | 58.6^$ % | 88 | 2.2 | 57.4^# % | 62.5^$ % |
